Source: ChEMBL document CHEMBL4673395, “Discovery of PIPE-359, a Brain-Penetrant, Selective M Receptor Antagonist with Robust Efficacy in Murine MOG-EAE” (ACS Med Chem Lett, 2021)

Tests used:
[1] = Metabolic stability in rat liver microsomes assessed as parent compound remaining at 1 uM measured at 15 mins by LC-MS/MS analysis; type: ADME, Microsome; details: read-out: Stabilty
[2] = molecular target: T1, Muscarinic acetylcholine receptor M1 (Homo sapiens, UniProt P11229); assay: Antagonist activity at human recombinant muscarinic receptor M1 expressed in CHO-K1 cells assessed as EC80 acetylcholine-induced calcium flux incubated for 30 mins; type: functional, cell-based
T1 sequence (P11229 whole entry): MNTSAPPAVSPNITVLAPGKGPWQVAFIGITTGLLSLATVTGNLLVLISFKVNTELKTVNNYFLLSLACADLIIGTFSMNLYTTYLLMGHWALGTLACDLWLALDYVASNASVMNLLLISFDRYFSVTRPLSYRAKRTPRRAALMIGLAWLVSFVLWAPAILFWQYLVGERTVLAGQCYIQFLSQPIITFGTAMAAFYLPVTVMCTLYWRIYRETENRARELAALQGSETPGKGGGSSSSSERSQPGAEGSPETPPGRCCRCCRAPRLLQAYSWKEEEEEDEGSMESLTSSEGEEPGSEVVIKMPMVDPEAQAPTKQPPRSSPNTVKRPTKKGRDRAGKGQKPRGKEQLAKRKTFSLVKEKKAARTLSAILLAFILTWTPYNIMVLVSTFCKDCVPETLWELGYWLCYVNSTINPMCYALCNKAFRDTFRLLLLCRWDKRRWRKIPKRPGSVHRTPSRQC

[3] = molecular target: Muscarinic acetylcholine receptor M3 (Homo sapiens, UniProt P20309); assay: Antagonist activity at human recombinant muscarinic receptor M3 expressed in CHO-K1 cells assessed as EC80 acetylcholine-induced calcium flux incubated for 30 mins; type: functional, cell-based; details: read-out: pIC50 (converted)
[4] = molecular target: T2, Muscarinic acetylcholine receptor M2 (Homo sapiens, UniProt P08172); assay: Antagonist activity at human recombinant muscarinic receptor M2 expressed in CHO-K1 cells assessed as EC80 acetylcholine-induced calcium flux incubated for 30 mins; type: functional, cell-based; details: read-out: pIC50 (converted)
T2 sequence (P08172 whole entry): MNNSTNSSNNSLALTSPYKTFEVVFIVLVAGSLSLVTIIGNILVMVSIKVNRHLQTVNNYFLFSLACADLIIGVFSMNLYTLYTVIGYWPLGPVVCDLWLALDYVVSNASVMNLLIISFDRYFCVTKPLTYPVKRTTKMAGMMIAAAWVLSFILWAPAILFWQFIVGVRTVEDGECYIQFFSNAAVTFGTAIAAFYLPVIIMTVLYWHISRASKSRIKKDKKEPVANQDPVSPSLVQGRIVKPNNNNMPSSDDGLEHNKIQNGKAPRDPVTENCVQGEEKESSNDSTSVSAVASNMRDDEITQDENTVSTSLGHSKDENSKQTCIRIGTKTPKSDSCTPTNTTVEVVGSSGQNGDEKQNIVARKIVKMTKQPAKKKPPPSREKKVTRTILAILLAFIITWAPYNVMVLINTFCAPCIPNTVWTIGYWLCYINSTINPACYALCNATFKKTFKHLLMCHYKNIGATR

[5] = Apparant permeability across apical to basolateral side in dog MDCK-MDR1 cells; type: ADME, cell-based, Canis lupus familiaris

Chain of Muscarinic acetylcholine receptor M3 (P20309 whole entry): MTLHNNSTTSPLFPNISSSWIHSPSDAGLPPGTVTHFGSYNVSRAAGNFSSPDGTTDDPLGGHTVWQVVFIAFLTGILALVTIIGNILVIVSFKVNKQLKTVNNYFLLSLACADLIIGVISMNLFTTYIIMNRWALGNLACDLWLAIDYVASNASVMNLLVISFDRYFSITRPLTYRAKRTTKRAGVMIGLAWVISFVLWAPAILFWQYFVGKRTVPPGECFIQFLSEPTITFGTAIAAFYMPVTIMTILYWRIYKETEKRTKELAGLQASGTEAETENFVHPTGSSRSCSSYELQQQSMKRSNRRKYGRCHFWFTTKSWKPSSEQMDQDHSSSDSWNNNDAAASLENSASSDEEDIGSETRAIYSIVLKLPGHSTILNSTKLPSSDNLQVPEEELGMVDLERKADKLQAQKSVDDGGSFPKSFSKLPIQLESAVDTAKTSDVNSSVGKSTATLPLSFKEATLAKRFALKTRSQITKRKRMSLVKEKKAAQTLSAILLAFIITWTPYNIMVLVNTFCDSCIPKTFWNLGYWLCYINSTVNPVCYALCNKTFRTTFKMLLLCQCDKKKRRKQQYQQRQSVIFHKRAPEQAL

| IC50 ([2]; read-out: IC50) [nM] | SMILES | other results |
| --- | --- | --- |
|  | Cc1cc(F)cnc1N1CCN(C(=O)CCCc2cccc3nc(N)sc23)[C@@H](C)C1 | remaining at 0.25 h, 1 µM [1]: 3.7% |
| 260 | Cc1ccncc1N1CCN(C(=O)CCS(=O)(=O)c2cccc3ncsc23)CC1 |  |
|  | Cc1cc(F)cnc1N1CCN(C(=O)CCCc2cccc3ncccc23)[C@@H](C)C1 | remaining at 0.25 h, 1 µM [1]: 0.2%; IC50 [3]: 1260 nM; IC50 [4]: 2000 nM; Papp A→B [5]: 8 ×10⁻⁶ cm/s |
| 19 | N#Cc1ccc(C2CCN(C(=O)CCS(=O)(=O)c3cccc4ncsc34)CC2)nc1 |  |
| 24 | O=C(CCCc1cccc2ncccc12)N1CCN(c2ccncc2)CC1 |  |
| 80 | N#Cc1ccc(C2=CCN(C(=O)CCS(=O)(=O)c3cccc4ncsc34)CC2)nc1 |  |
| 38 | C[C@@H]1CN(c2ccncc2Cl)CCN1C(=O)CCCc1cccc2ncccc12 |  |
| 4800 | O=C(CCS(=O)(=O)c1cccc2ncsc12)N1CCN(c2ccnc(C(F)(F)F)c2)CC1 |  |
| 490 | O=C(CCCc1cccc2ncccc12)N1CCN(c2ccncc2F)CC1 |  |
| 3000 | Cc1cc(F)cnc1N1CCN(C(=O)CNCc2cccc3ncsc23)[C@@H](C)C1 |  |
| 8500 | Cc1cncc(Cl)c1N1CCN(C(=O)CCS(=O)(=O)c2cccc3ncsc23)CC1 |  |
| 330 | C[C@@H]1CN(C(=O)CCS(=O)(=O)c2cccc3ncsc23)[C@@H](C)CN1c1ccc(C#N)cn1 (racemic) |  |
| 71 | Cc1cc(F)cnc1N1CCN(C(=O)CCS(=O)(=O)c2cccc3ncsc23)[C@@H](C)C1 | remaining at 0.25 h, 1 µM [1]: 9.6% |
| 83 | Cc1cc(F)cnc1N1CCN(C(=O)CCCc2cccc3ncncc23)[C@@H](C)C1 | remaining at 0.25 h, 1 µM [1]: 0% |
| 22 | CC1CN(c2ccc(C#N)cn2)CCN1C(=O)CCS(=O)(=O)c1cccc2ncsc12 (racemic) |  |
| 1400 | Cc1cc(F)cnc1N1CCCN(C(=O)CCCc2cccc3ncccc23)CC1 |  |
| 160 | O=C(CCS(=O)(=O)c1cccc2ncsc12)N1CCN(c2ccc(Cl)cn2)CC1 | remaining at 0.25 h, 1 µM [1]: 31% |
|  | Cc1cc(F)cnc1N1CCN(C(=O)CCCc2cccc3ncoc23)[C@@H](C)C1 | remaining at 0.25 h, 1 µM [1]: 0% |

| SMILES | IC50 ([2]; read-out: IC50) [nM] | other results |
| --- | --- | --- |
| N#Cc1ccc(N2CC3CCC(C2)N3C(=O)CCS(=O)(=O)c2cccc3ncsc23)nc1 | 8.7 |  |
| Cc1cc(F)cnc1N1CCN(C(=O)CCCc2cccc3cncnc23)[C@@H](C)C1 | > 20000 | IC50 ([2]; read-out: pIC50 (converted)): > 10000 nM |
| O=C(CCCc1cccc2ncccc12)N1CC2(C1)CN(c1ccc(F)cn1)C2 | > 20000 | IC50 ([2]; read-out: pIC50 (converted)): > 10000 nM |
